Experiments:
Type in all cases: functional
[1] = tested on: K562; experiment: Growth inhibition of human K562 cells incubated for 48 hrs by sulforhodamine B assay; settings: K562, 48 h
[2] = tested on: MOLT-4; experiment: Growth inhibition of human MOLT4 cells incubated for 48 hrs by sulforhodamine B assay; settings: MOLT-4, 48 h
[3] = tested on: NCI-H226; experiment: Growth inhibition of human NCI-H226 cells incubated for 48 hrs by sulforhodamine B assay; settings: NCI-H226, 48 h
[4] = tested on: NCI-H23; experiment: Growth inhibition of human NCI-H23 cells incubated for 48 hrs by sulforhodamine B assay; settings: NCI-H23, 48 h
[5] = tested on: NCI-H322M; experiment: Growth inhibition of human NCI-H322M cells incubated for 48 hrs by sulforhodamine B assay
[6] = tested on: NCI-H460; experiment: Growth inhibition of human NCI-H460 cells incubated for 48 hrs by sulforhodamine B assay; settings: NCI-H460, 48 h
[7] = tested on: NCI-H522; experiment: Growth inhibition of human NCI-H522 cells incubated for 48 hrs by sulforhodamine B assay; settings: NCI-H522, 48 h
[8] = tested on: HCC 2998; experiment: Growth inhibition of human HCC2998 cells incubated for 48 hrs by sulforhodamine B assay; settings: HCC 2998, 48 h
[9] = tested on: HCT-15; experiment: Growth inhibition of human HCT15 cells incubated for 48 hrs by sulforhodamine B assay; settings: HCT-15, 48 h
[10] = tested on: HT-29; experiment: Growth inhibition of human HT-29 cells incubated for 48 hrs by sulforhodamine B assay; settings: HT-29, 48 h
[11] = tested on: KM12; experiment: Growth inhibition of human KM12 cells incubated for 48 hrs by sulforhodamine B assay; settings: KM12, 48 h
[12] = tested on: SW-620; experiment: Growth inhibition of human SW620 cells incubated for 48 hrs by sulforhodamine B assay; settings: SW-620, 48 h
[13] = tested on: SF-539; experiment: Growth inhibition of human SF539 cells incubated for 48 hrs by sulforhodamine B assay; settings: SF-539, 48 h
[14] = tested on: SNB-75; experiment: Growth inhibition of human SNB75 cells incubated for 48 hrs by sulforhodamine B assay; settings: SNB-75, 48 h
[15] = tested on: MDA-MB-435; experiment: Growth inhibition of human MDA-MB-435 cells incubated for 48 hrs by sulforhodamine B assay; settings: MDA-MB-435, 48 h
[16] = tested on: SK-MEL-2; experiment: Growth inhibition of human SK-MEL-2 cells incubated for 48 hrs by sulforhodamine B assay; settings: SK-MEL-2, 48 h
[17] = tested on: UACC-62; experiment: Growth inhibition of human UACC62 cells incubated for 48 hrs by sulforhodamine B assay; settings: UACC-62, 48 h
[18] = tested on: IGROV-1; experiment: Growth inhibition of human IGROV1 cells incubated for 48 hrs by sulforhodamine B assay; settings: IGROV-1, 48 h
[19] = tested on: OVCAR-4; experiment: Growth inhibition of human OVCAR4 cells incubated for 48 hrs by sulforhodamine B assay; settings: OVCAR-4, 48 h
[20] = tested on: OVCAR-8; experiment: Growth inhibition of human OVCAR8 cells incubated for 48 hrs by sulforhodamine B assay; settings: OVCAR-8, 48 h
[21] = tested on: 786-0; experiment: Growth inhibition of human 786-0 cells incubated for 48 hrs by sulforhodamine B assay; settings: 786-0, 48 h
[22] = tested on: A498; experiment: Growth inhibition of human A498 cells incubated for 48 hrs by sulforhodamine B assay; settings: A498, 48 h
[23] = tested on: ACHN; experiment: Growth inhibition of human ACHN cells incubated for 48 hrs by sulforhodamine B assay
[24] = tested on: RXF 393; experiment: Growth inhibition of human RXF393 cells incubated for 48 hrs by sulforhodamine B assay; settings: RXF 393, 48 h
[25] = tested on: SN12C; experiment: Growth inhibition of human SN12C cells incubated for 48 hrs by sulforhodamine B assay
[26] = tested on: TK-10; experiment: Growth inhibition of human TK10 cells incubated for 48 hrs by sulforhodamine B assay; settings: TK-10, 48 h
[27] = tested on: UO-31; experiment: Growth inhibition of human UO31 cells incubated for 48 hrs by sulforhodamine B assay; settings: UO-31, 48 h
[28] = tested on: PC-3; experiment: Growth inhibition of human PC3 cells incubated for 48 hrs by sulforhodamine B assay; settings: PC-3, 48 h
[29] = tested on: BT-549; experiment: Growth inhibition of human BT549 cells incubated for 48 hrs by sulforhodamine B assay; settings: BT-549, 48 h
[30] = read-out: LC50 (the source's name)

Cc1nc2cc(O)c(O)cc2cc1Oc1ccc(NC(=O)Nc2ccc(Cl)c(Cl)c2)cc1
GI50 [1]: 6.93 µM | LC50 (concentration killing 50% of cells) [1]: > 32.5 µM | TGI [1]: 29.6 µM | GI50 [2]: 8.87 µM | LC50 [2]: > 32.5 µM | TGI [2]: > 32.5 µM | GI50 [3]: 11.8 µM | TGI [3]: > 32.5 µM | CC50 [3, 30]: > 32.5 µM | GI50 [4]: 6.97 µM | TGI [4]: 19.6 µM | CC50 [4, 30]: > 32.5 µM | GI50 [5]: 14.1 µM | TGI [5]: > 32.5 µM | CC50 [5, 30]: > 32.5 µM | GI50 [6]: 6.95 µM | TGI [6]: 15.8 µM | CC50 [6, 30]: > 32.5 µM | GI50 [7]: 4.43 µM | TGI [7]: 12.5 µM | CC50 [7, 30]: > 32.5 µM | GI50 [8]: 6.7 µM | TGI [8]: 14.6 µM | CC50 [8, 30]: 32 µM | GI50 [9]: 5.47 µM | LC50 (lethal concentration, 50% net cell kill) [9]: > 32.5 µM | TGI [9]: > 32.5 µM | GI50 [10]: 11.9 µM | TGI [10]: > 32.5 µM | CC50 [10, 30]: > 32.5 µM | GI50 [11]: 9.64 µM | TGI [11]: 32 µM | CC50 [11, 30]: > 32.5 µM | GI50 [12]: 4.9 µM | LC50 [12]: > 32.5 µM | TGI [12]: > 32.5 µM | GI50 [13]: 8.86 µM | TGI [13]: 22.7 µM | CC50 [13, 30]: > 32.5 µM | GI50 [14]: 7.73 µM | TGI [14]: 28.9 µM | CC50 [14, 30]: > 32.5 µM | GI50 [15]: 6.99 µM | TGI [15]: > 32.5 µM | CC50 [15, 30]: > 32.5 µM | GI50 [16]: 8.83 µM | TGI [16]: 21.1 µM | CC50 [16, 30]: > 32.5 µM | GI50 [17]: 5.67 µM | TGI [17]: 11.2 µM | CC50 [17, 30]: 22.1 µM | GI50 [18]: 12.3 µM | TGI [18]: > 32.5 µM | CC50 [18, 30]: > 32.5 µM | GI50 [19]: 9.73 µM | TGI [19]: > 32.5 µM | CC50 [19, 30]: > 32.5 µM | GI50 [20]: 5.77 µM | TGI [20]: > 32.5 µM | CC50 [20, 30]: > 32.5 µM | GI50 [21]: 7.67 µM | TGI [21]: 18.6 µM | CC50 [21, 30]: > 32.5 µM | GI50 [22]: > 32.5 µM | TGI [22]: > 32.5 µM | CC50 [22, 30]: > 32.5 µM | GI50 [23]: 3.37 µM | TGI [23]: 17.9 µM | CC50 [23, 30]: > 32.5 µM | GI50 [24]: 9.24 µM | TGI [24]: > 32.5 µM | CC50 [24, 30]: > 32.5 µM | GI50 [25]: 8.97 µM | TGI [25]: 30.3 µM | CC50 [25, 30]: > 32.5 µM | GI50 [26]: 14.2 µM | TGI [26]: > 32.5 µM | CC50 [26, 30]: > 32.5 µM | GI50 [27]: 6.97 µM | TGI [27]: 14.9 µM | CC50 [27, 30]: 31.9 µM | GI50 [28]: 4.36 µM | TGI [28]: > 32.5 µM | CC50 [28, 30]: > 32.5 µM | GI50 [29]: 7.5 µM | TGI [29]: > 32.5 µM | CC50 [29, 30]: > 32.5 µM
